Measurements published in patent US4458077A, “Heterocyclic anti-ulcer agents” (American Home Products Corporation, priority 1982, dated 1984).
Where two headings read alike, the source gives them in different places. One block for each molecule: values may come before it.

Key:
H2 histamine receptors = H2 histamine receptors (Cavia porcellus, UniProt P47747); assay: guinea pig heart atrium test: inhibition of histamine-induced positive chronotropic response (H2 antagonist activity)
Description: (§1) The results for some of the compounds of the invention in these procedures is presented at the end of the following examples, which will serve to illustrate the present invention.
The guniea pig heart atrium test is carried out as follows:
A guinea pig right atrium is suspended at 1 g. tension (isometric) in a thermostatically controlled (32° C.) tissue bath (10 ml) containing oxygenated (95% O2; 5% CO2) Krebs-Haenseleit buffer (pH 7.4). The tissue is allowed to stabilize over 1 hour. Individual contractions are recorded with a force-displacement transducer through a strain gauge coupler. A control dose-response curve to histamine in the above described tissue bath is obtained after which the tissue is washed 3 times and allowed to re-equilibrate to basal rate. The test compound is added to the tissue bath at the desired final concentration. Thirty minutes after addition of the compound, a fresh histamine dose response curve is again obtained. Then the response to histamine in the presence of antagonist is compared to the histamine control response. This procedure is repeated, using fresh tissues, for each concentration of antagonist tested. The result is expressed as the apparent dissociation constant (pA2) of the H2 antagonist as determined by standard procedures. Cimetidine is used as the standard for this test.

[1] = background, cited from earlier work
gastric acid secretion = assay: gastric secretion in the pylorus-ligated rat (modified Shay procedure); format: in vivo; details: 32 mg/kg, interduodenally (i.d.), pylorus-ligated male Charles River rats, 4 hours after ligation
Description: as §1
The procedure for testing gastric secretion in the rat, a modification of the procedure of Shay et al., Gastroenterology, 26, 906-13 (1954) is carried out as follows:
Male Charles River rats weighing 200-300 grams are deprived of food but not water for 24 hours prior to use. Water is, however, withheld during the experiment. The rats are weighed, anesthetized, and the pylorus ligated according to the method of Shay et al. Treatment or vehicle control is then administered interduodenally (i.d.). Rats are housed 2/cage and sacrificed with CO2 four hours after ligation. The stomachs are removed, rinsed, and contents emptied into a graduated centrifuge tube. The tubes are centrifuged for 20 minutes at 2,000 RPM and the volume of gastric juice recorded. Any samples obviously contamined by feces, food or hemolysis are eliminated. An aliquot of each is frozen for later analysis of Na^+, K^+ and Cl^- concentration. The pH is measured and 1 ml. of gastric juice is titrated with 0.1N NaOH to a pH of 7.0-7.4. Titrable acid output is calculated in microequivalents and the percent inhibition of acid output is calculated as follows: [formula]

[2] = apparent dissociation constant (pA2) vs histamine, guinea pig right atrium, 32° C, pH 7.4, 30 min after compound, three experiments, read-out: pA2 Value (converted)

Chain of H2 histamine receptors (P47747 whole entry): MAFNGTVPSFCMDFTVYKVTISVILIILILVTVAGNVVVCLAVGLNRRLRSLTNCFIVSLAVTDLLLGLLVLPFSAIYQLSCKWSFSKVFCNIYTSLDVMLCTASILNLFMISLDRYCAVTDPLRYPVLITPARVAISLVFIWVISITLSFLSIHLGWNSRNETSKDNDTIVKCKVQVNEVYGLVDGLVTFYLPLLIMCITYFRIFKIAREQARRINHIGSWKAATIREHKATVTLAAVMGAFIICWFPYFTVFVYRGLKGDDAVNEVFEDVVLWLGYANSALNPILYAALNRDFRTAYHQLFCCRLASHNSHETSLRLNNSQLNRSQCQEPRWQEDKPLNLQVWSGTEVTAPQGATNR

Kb (H2 histamine receptors; [2]): 1.26 µM
SMILES: CNC(=S)NOCCOCc1ccc(CN(C)C)o1 [Example 4, N-[2-[[5-[(dimethylamino)methyl]-2-furanyl]methoxy]ethoxy]-N'-methyl-thiourea, 1/2 hydrate]

SMILES: CN/C(=N/CCSCc1nc[nH]c1C)NC#N [cimetidine]
confusional states (limitation) ([1]; elderly patients): a tendency to cause confusional states in elderly patients
anti-androgenic activity (limitation) ([1]; patients): anti-androgenic activity

Kb (H2 histamine receptors; [2]): 9.12 µM
SMILES: CNC(=C[N+](=O)[O-])NOCCOCc1ccc(CN(C)C)o1 [Example 2, N-[2-[[5-[(dimethylamino)methyl]-2-furanyl]methoxy]ethoxy]-N'-methyl-2-nitro-1,1-ethenediamine, ethanedioate]

Kb (H2 histamine receptors; printed in pA2 column, footnote *: KB value, result of only one experiment, guinea pig right atrium vs histamine, read-out: KB value): 0.108 µM
SMILES: CNC(=C[N+](=O)[O-])NOCCCc1csc(NC(=N)N)n1 [Example 5, [4-[3-[[[1-(methylamino)-2-nitroethenyl]amino]oxy]propyl]-2-thiazolyl]guanidine]
% Inhibition (of acid output) (gastric acid secretion): 72%
